The text below walks through data of patent US8895570B2, “Purine derivatives” (AstraZeneca AB, priority 2010, dated 2014).

The nature of one data set: Human plasma stability. The data set is classed as in vitro ADME. As to conditions: 37° C. The protocol:
To determine the half life of the test compound in human plasma, incubations were performed at 37° C. in a shaking water bath. Compound (5 μl of 100 μM stock in MeCN) was spiked into 0.495 mL plasma to give final incubation concentration of 1 μM. Aliquots (50 μl) were withdrawn at various time points (typically 0, 20 & 40 sec, 1, 2, 3, 5 & 10 mins) and quenched into MeCN ([…]) followed by analysis for parent compound by LC-MS-MS (MRM mode). The half life was calculated from the decline of test compound peak area over time. • Example 1 (Compound (I)) gave a half life of 0.6 minutes (n=1). • Comparative Example 1 gave a half life of 0.2 minutes (n=1).

The target in the next data set is T1, human TLR7 (Homo sapiens, UniProt Q9NYK1).
T1 construct: expressed in transfected cells; host or cells: HEK293 stably expressing pNiFty2-SEAP reporter; TLR7 in pUNO vector
T1 sequence (Q9NYK1 27-1049): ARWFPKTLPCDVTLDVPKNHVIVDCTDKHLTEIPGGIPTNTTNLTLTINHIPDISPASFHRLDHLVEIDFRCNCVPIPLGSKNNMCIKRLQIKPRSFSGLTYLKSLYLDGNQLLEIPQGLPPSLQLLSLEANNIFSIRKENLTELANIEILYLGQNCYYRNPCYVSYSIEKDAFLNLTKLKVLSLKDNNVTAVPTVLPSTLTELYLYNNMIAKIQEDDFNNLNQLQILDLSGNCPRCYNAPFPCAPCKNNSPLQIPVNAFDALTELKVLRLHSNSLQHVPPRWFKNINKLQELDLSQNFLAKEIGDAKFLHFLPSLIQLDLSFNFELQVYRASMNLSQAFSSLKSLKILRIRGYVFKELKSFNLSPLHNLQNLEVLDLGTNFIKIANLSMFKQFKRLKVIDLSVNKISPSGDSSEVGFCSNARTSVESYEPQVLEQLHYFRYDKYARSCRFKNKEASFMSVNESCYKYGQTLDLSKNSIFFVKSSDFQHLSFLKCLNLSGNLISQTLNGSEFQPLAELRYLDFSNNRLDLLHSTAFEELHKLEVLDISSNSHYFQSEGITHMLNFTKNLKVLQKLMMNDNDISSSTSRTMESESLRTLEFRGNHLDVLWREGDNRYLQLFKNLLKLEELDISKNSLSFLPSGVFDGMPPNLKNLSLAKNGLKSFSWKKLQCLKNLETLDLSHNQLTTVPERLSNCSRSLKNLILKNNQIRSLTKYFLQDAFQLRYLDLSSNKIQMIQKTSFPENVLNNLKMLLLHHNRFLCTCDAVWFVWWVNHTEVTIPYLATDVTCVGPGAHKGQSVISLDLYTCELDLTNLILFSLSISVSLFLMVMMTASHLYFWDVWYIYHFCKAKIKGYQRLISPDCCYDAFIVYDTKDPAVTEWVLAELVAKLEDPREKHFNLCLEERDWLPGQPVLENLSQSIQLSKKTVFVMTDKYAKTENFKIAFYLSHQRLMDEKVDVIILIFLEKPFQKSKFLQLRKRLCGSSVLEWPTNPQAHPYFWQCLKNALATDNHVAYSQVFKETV
The data set is described as follows: Human TLR7 assay (SEAP reporter in HEK293 cells). In kind it is cell-based. The conditions noted are these: HEK293 cells expressing recombinant human TLR7, overnight incubation at 37° C., 0.1% DMSO; read-out: mean pEC50 (SEAP induction) (converted). The text has this: Recombinant human TLR7 was stably expressed in a HEK293 cell line already stably expressing the pNiFty2-SEAP reporter plasmid; integration of the reporter gene was maintained by selection with the antibiotic zeocin. The most common variant sequence of human TLR7 (represented by the EMBL sequence AF240467) was cloned into the mammalian cell expression vector pUNO and transfected into this reporter cell-line. Transfectants with stable expression were selected using the antibiotic blasticidin. In this reporter cell-line, expression of secreted alkaline phosphatase (SEAP) is controlled by an NFkB/ELAM-1 composite promoter comprising five NFkB sites combined with the proximal ELAM-1 promoter. TLR signaling leads to the translocation of NFkB and activation of the promoter results in expression of the SEAP gene. TLR7-specific activation was assessed by determining the level of SEAP produced following overnight incubation of the cells at 37° C. with the standard compound in the presence of 0.1% (v/v) dimethylsulfoxide (DMSO). […] Human Skin Cytokine Production

A further data set concerns the target T2, CYP3A4 (Homo sapiens, UniProt P08684).
T2 construct: made in house; host or cells: E. coli (membranes)
The experiment in a line: CYP inhibition. In kind it is in vitro ADME. As to conditions: expressed in E. coli membranes, substrate midazolam, LC-MS-MS; read-out: Mean pIC50 CYP3A4 (converted). On the procedure: (§1) The five major human hepatic Cytochrome P450 isoforms, 1A2, 2C9, 2C19, 2D6 and 3A4 were heterologously expressed in E. coli membranes. Each of the five CYPs were incubated with a cocktail of specific substrates; phenacetin, diclofenac, 5-mephenyloin, bufuralol and midazolam, which are predominantly metabolised by CYP 1A2, 2C9, 2C19, 2D6 and 3A4 respectively plus the test compound.
(§2) The substrates were incubated, at concentrations equivalent to their respective Km values, and LC-MS-MS (MRM mode) was used in order to follow the formation of their specific metabolites. The ability of the test compound to inhibit the CYP isoforms was determined by following any decrease in the amount of the specific metabolites formed at six different inhibitor concentrations.
(§3) The rates of reaction were calculated by measuring MS/MS area units and data analysis was performed by linearising the data using a pseudo Hill plot. The IC50 ie the concentration of the test compound that decreases the amount of metabolite formed by 50% was determined.

The next data set has as its target T3, CYP2C9 (Homo sapiens, UniProt P11712).
T3 construct: made in house; host or cells: E. coli (membranes)
The data set is described as follows: CYP inhibition. The data set is classed as in vitro ADME. The conditions noted are these: expressed in E. coli membranes, substrate diclofenac, LC-MS-MS; read-out: Mean pIC50 CYP2C9 (converted). On the procedure:
as §1, §2, §3

For the next data set, the target named is T4, CYP2D6 (Homo sapiens, UniProt P10635).
T4 construct: made in house; host or cells: E. coli (membranes)
T4 sequence (P10635 whole entry): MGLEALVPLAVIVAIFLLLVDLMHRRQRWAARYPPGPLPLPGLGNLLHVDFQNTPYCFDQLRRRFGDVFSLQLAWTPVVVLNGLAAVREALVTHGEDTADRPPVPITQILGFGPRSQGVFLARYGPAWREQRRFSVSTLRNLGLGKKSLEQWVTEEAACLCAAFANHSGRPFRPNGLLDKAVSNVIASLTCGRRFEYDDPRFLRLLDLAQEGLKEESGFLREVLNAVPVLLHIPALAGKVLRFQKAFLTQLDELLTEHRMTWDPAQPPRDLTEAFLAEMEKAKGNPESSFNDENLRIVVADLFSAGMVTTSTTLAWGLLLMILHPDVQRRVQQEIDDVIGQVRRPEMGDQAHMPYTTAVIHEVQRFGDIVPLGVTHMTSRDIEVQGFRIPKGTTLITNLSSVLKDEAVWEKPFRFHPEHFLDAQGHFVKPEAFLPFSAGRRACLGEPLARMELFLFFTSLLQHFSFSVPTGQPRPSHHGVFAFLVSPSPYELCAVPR
The experiment in a line: CYP inhibition. As to conditions: expressed in E. coli membranes, substrate bufuralol, LC-MS-MS; read-out: Mean pIC50 CYP2D6 (converted). The data set is classed as in vitro ADME. On the procedure:
as §1, §2, §3

In another data set the target is T5, CYP1A2 (Homo sapiens, UniProt P05177).
T5 construct: made in house; host or cells: E. coli (membranes)
T5 sequence (P05177 1-516): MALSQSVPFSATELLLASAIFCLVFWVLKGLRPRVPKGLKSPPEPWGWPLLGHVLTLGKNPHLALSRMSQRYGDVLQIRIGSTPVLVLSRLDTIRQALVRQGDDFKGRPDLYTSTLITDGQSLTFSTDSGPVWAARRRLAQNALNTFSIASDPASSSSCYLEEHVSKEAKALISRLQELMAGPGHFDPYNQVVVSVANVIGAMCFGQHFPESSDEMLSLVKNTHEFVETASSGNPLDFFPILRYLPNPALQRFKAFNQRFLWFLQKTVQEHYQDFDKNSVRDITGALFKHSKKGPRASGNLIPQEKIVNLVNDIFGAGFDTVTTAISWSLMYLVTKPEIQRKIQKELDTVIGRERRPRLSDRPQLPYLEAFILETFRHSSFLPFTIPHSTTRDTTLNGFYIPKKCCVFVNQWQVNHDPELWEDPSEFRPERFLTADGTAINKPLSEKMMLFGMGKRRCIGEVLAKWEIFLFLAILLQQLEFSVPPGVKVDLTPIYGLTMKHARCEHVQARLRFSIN
The data set is described as follows: CYP inhibition. The conditions noted are these: expressed in E. coli membranes, substrate phenacetin, LC-MS-MS; read-out: Mean pIC50 CYP1A2 (converted). The data set is classed as in vitro ADME. On the procedure:
as §1, §2, §3

The next data set deals with T6, CYP2C19 (Homo sapiens, UniProt P33261).
T6 construct: made in house; host or cells: E. coli (membranes)
T6 sequence (P33261 whole entry): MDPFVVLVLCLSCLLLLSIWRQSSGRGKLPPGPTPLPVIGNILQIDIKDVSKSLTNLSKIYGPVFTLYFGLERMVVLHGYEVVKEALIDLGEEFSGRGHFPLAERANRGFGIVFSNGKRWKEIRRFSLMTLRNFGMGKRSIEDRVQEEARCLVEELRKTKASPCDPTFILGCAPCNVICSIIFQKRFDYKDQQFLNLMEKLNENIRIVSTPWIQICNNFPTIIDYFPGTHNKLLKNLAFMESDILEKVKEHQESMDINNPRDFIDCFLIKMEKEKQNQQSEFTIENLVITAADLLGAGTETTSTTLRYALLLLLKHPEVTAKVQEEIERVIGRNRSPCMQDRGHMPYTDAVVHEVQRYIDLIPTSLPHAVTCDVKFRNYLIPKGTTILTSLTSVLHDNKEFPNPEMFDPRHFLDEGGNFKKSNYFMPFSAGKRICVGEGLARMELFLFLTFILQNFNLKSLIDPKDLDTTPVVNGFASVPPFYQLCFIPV
The experiment in a line: CYP inhibition. In kind it is in vitro ADME. As to conditions: expressed in E. coli membranes, substrate 5-mephenyloin, LC-MS-MS; read-out: Mean pIC50 CYP2C19 (converted). The protocol: as §1, §2, §3

Data set [1] deals with interleukin-13 (IL-13) production in human skin biopsies. The data set is described as follows: Human skin cytokine production (PHA-induced IL-13 in skin biopsies). In kind it is cell-based. The conditions noted are these: PHA-stimulated human skin biopsies, 24 hours. The protocol:
Normal human skin biopsies were obtained, with informed consent, from healthy patients undergoing surgical cosmetic procedures. 3 mm full thickness skin biopsies were taken using a biopsy punch. A hole was cut in a Transwell filter (pore size 0.4 μm) using a punch and the skin biopsy inserted in the hole. The filter containing the biopsy was placed in the well of a 24-well culture plate containing 1.25 ml of culture medium (RPMI containing 1% heat-inactivated human serum) with the epidermis facing upwards at the liquid-air interface. Culture plates containing the biopsies were incubated at 37° C., in an atmosphere of 5% CO2 in air, for 24 hours. Biopsies were cultured in the absence or presence of phytohaemagglutinin (PHA) (1 mg/ml) added to the culture medium to induce a cytokine response in the tissue.

Data set [2] is described as follows: Maximal solubility in phosphate citrate buffer pH 3.0. The data set is classed as physicochemical.
Setting [3] is: compound applied topically at 1/10 max. solubility.
Where [4] appears, read: compound applied topically at max. solubility.

T3 sequence (P11712 whole entry): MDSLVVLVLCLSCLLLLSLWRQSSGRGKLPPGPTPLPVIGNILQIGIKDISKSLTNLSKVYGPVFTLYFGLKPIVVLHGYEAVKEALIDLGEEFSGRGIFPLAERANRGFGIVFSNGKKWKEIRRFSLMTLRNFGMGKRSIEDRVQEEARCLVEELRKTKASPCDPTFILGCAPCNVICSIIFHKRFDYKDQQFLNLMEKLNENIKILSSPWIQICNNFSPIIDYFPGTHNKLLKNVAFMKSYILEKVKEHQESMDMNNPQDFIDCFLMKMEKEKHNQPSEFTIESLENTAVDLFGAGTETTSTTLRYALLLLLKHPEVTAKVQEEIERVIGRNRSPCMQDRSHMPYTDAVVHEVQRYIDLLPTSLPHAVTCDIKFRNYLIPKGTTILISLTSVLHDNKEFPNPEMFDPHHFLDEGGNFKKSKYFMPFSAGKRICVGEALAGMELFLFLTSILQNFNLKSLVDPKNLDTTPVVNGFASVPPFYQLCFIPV
T2 sequence (P08684 whole entry): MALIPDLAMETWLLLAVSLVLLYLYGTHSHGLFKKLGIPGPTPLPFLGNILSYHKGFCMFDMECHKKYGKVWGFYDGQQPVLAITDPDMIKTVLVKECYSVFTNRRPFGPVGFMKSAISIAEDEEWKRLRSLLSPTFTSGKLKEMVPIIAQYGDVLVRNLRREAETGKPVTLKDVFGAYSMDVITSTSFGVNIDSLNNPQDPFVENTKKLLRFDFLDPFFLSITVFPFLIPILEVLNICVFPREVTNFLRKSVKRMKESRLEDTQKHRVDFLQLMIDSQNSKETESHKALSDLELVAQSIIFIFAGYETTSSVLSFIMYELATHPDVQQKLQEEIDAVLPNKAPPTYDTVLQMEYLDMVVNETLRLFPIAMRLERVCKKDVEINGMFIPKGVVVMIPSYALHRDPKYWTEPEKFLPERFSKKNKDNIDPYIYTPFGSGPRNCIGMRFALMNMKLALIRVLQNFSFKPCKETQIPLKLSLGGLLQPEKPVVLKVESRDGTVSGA

`CCCCOc1nc(N)c2[nH]c(=O)n(CCCN(CCCN3CCCCC3)Cc3cccc(CC(=O)OC)c3)c2n1` [Comparative Example 1, Methyl [3-({[3-(6-amino-2-butoxy-8-oxo-7,8-dihydro-9H-purin-9-yl)propyl][3-(piperidin-1-yl)propyl]amino}methyl)phenyl]acetate, reference compound] came in with a half-life at 1 μM in “Human plasma stability” of 0.2 min. Moreover, the EC50 on human TLR7 is 158 nM. Also, the IC50 on CYP3A4 was 13.2 nM; at CYP2C9, over 29.5 µM; on CYP2D6 it was 13.5 µM; at CYP1A2, over 30.2 µM; at CYP2C19, over 30.2 µM.

The compound `CCCCOc1nc(N)c2[nH]c(=O)n(CCCN(CCCN3CCCCC3)Cc3ccc(CC(=O)OC)cc3)c2n1` [Example 1, Methyl [4-({[3-(6-amino-2-butoxy-8-oxo-7,8-dihydro-9H-purin-9-yl)propyl][3-(piperidin-1-yl)propyl]amino}methyl)phenyl]acetate] gave a half-life at 1 μM in “Human plasma stability” of 0.6 min. Besides, the EC50 on human TLR7 was 251 nM. Besides, the “% Inhibition of response” value in data set [1] (setting [3]) was 55%; in data set [1] (setting [4]) it was 87%. The entries for the “IL-13 (pg/ml) Mean ± SEM” value in data set [1] (setting [3]) and in [1] (setting [4]) were 4.8 ± 0.8 pg/mL and 1.9 ± 0.8 pg/mL, respectively. Moreover, the “maximal solubility in phosphate citrate buffer pH 3.0” value in [2] is listed as 4.1-4.4 % w/w. Also, the IC50 at CYP3A4 is 468 nM; on CYP2C9 it was over 3.02 µM; on CYP2D6, over 3.02 µM; at CYP1A2, over 3.02 µM; on CYP2C19, over 3.02 µM.

By half-life is commonly meant the time in which the quantity being followed falls by half. A high value points to slow decline.
